The source of these data is patent US7772198B2, “CFTR channel modulators” (Centre National de la Recherche Scientifique, priority 2003, dated 2010).

Read-outs that look alike come from different tables or passages of the source.

For data set [1], the target named is T1, G551D-CFTR (CHO-G551D cells) (Homo sapiens, UniProt P13569, G551D).
T1 construct: expressed in transfected cells; host or cells: CHO (Chinese Hamster Ovary) cells, stably transfected
Description: 125I iodide efflux, CHO cells expressing G551D mutated CFTR (CHO-G551D). The class given is cell-based. The settings on record: for IC50: 10 μM Fsk + 30 μM genistein; for effect on G551D mutated receptors: summary of Table II.

The target in data set [2] is wild-type CFTR protein (Calu-3 cells) (Homo sapiens, UniProt P13569). Description: iodide efflux, Calu-3 human lung cells naturally expressing wild-type CFTR.
The target of data set [3] is T2, wild-type CFTR receptor (CHO-WT cells) (Homo sapiens, UniProt P13569).
T2 construct: expressed in transfected cells; host or cells: CHO (Chinese Hamster Ovary) cells, stably transfected
Description: 125I iodide efflux, CHO cells overexpressing wild-type CFTR (CHO-WT). The class given is cell-based. The settings on record: for IC50: 5 μM Fsk; for Effect: + activator, − inhibitor, compound 1 μM, 100% = activation with 1 μM forskolin; for EC50: activators, 1 μM forskolin; for effect on wild-type receptors: summary of Table II.

Data set [4] is described as follows: pKa evaluation in aqueous solution. In kind it is physicochemical. The protocol: As an example, the pKa of this compound was evaluated at 4. This means that in an aqueous solution with a pH of 7, this compound is mainly in zwitterionic form, as in the case of highly diluted solutions such as those used for biological tests.
The target of data set [5] is CFTR channel (Homo sapiens, UniProt P13569). Conditions: read-out: IC50, concentration to inhibit 50% of the activity of the CFTR channel; cited from earlier work.
The subject of data set [6] is diarrhoea caused by the cholera toxin. The settings on record: mouse, in vivo; cited from earlier work.
Data set [7] concerns mice. Conditions: at 7 days, 10 mg/kg injection; cited from earlier work.
For data set [8], the target named is mutated F508-CFTR (CF15 cells) (Homo sapiens, UniProt P13569, DEL508-508). Kind of data set: iodide efflux, CF15 human nasal epithelial cells expressing mutated F508-CFTR. The settings on record: results not shown.
The mark [9] stands for this setting: 1 μM compound added to 1 μM Fsk.
Where [10] appears, read: 1 μM compound added to 5 μM Fsk.
Where [11] appears, read: 1 μM compound added to 10 μM Fsk + 30 μM genistein.

For orientation: pKa means the negative logarithm of the acid dissociation constant. One may read the EC50 as the concentration needed to bring the measured effect to its halfway point.

T2 sequence (P13569 whole entry): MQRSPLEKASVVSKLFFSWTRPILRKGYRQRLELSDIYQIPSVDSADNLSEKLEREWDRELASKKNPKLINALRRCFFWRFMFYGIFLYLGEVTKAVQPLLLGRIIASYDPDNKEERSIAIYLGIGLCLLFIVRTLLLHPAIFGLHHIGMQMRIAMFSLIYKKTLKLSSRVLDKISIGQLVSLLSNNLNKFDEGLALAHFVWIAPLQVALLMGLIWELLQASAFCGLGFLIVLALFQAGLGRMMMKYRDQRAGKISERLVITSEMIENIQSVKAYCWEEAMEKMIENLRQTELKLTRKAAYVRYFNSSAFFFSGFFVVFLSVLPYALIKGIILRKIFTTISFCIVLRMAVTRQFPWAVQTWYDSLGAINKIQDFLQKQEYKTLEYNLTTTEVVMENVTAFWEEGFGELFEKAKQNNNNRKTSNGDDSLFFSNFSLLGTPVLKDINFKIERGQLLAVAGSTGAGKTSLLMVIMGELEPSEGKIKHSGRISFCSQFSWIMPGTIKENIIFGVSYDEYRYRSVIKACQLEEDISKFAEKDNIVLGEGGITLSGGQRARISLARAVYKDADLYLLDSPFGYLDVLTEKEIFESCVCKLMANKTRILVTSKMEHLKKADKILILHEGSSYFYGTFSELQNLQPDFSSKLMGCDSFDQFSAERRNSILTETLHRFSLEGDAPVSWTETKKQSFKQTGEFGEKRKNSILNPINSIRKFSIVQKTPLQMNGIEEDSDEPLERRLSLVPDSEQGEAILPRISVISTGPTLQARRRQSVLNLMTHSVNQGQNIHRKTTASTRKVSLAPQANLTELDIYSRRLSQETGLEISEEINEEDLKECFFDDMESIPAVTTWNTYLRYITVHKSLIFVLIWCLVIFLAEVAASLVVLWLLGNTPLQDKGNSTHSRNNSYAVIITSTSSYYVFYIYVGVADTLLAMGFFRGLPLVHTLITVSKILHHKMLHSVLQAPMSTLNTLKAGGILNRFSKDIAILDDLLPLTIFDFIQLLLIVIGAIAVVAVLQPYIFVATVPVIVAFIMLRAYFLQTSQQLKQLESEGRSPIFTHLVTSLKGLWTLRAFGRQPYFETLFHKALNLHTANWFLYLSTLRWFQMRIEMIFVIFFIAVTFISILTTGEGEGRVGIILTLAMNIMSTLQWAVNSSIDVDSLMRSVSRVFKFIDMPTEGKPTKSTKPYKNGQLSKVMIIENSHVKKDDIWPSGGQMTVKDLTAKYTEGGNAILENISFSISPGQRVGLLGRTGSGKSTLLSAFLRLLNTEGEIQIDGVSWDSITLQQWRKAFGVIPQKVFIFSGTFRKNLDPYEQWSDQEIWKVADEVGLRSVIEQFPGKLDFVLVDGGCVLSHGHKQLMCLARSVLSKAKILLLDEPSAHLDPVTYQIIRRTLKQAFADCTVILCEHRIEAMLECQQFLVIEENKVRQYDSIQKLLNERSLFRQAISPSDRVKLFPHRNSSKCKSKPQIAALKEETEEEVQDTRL
Sequence of wild-type CFTR protein (Calu-3 cells) (P13569 whole entry): as above
T1 sequence (P13569 whole entry G551D): as the sequence (P13569 whole entry) above, with G551D counted along it
Sequence of CFTR channel (P13569 whole entry): as the sequence (P13569 whole entry) above
Sequence of mutated F508-CFTR (CF15 cells) (P13569 with tags, fused parts or gaps DEL508-508): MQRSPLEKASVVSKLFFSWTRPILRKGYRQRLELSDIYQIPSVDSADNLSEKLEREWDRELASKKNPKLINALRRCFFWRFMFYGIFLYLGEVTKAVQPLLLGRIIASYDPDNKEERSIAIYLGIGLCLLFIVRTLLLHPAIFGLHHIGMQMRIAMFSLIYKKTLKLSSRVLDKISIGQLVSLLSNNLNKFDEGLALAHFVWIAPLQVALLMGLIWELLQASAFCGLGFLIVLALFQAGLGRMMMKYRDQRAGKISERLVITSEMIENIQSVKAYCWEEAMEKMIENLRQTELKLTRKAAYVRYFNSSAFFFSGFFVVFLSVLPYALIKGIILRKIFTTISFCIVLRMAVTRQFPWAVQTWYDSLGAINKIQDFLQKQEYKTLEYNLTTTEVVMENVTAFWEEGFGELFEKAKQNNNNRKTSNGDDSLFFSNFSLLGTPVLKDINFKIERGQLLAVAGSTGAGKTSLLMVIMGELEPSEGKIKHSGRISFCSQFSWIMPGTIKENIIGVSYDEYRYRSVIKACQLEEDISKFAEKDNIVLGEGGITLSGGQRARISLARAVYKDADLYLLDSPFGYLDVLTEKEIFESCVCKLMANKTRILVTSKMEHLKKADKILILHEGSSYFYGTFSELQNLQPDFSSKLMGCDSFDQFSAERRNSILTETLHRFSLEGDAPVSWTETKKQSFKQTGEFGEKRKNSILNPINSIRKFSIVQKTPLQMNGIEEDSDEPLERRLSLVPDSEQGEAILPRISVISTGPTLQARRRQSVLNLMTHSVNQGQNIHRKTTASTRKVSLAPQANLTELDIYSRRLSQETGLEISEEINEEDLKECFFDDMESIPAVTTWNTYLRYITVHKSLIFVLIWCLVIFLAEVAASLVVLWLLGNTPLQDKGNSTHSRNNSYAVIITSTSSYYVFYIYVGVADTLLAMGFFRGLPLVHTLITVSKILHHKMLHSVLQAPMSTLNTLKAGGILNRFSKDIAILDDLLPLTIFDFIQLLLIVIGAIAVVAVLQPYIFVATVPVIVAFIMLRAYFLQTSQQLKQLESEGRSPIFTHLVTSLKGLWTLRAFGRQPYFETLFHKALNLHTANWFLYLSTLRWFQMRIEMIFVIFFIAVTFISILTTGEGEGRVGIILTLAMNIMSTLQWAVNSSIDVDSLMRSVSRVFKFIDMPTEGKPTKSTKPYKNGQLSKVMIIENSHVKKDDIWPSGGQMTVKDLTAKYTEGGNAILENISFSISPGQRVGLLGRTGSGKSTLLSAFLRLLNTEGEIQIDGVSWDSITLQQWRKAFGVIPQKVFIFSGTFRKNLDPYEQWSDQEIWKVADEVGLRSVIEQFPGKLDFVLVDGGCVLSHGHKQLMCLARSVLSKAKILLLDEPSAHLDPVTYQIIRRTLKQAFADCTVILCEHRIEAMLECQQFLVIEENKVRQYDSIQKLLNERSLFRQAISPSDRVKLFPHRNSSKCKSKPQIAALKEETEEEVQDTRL

In the case of `C[n+]1cn([C@@H]2O[C@H](CO)[C@@H](O)[C@H]2O)c2nc(N)nc([O-])c21` [Compound 8, 7-methylguanosine], the IC50 amounted to 15000 nM in data set [1], 11000 nM in data set [2] and 3500 nM in data set [3].
With `CC1(C(=O)O)N=C2C=CC=CN2C(C)(O)C1O` (centres unmarked), the pKa in data set [4] (aqueous solution, aqueous solution at 25° C., read-out: pKa, carboxylic acid function) was about 2; in data set [4] (aqueous solution, aqueous solution at 25° C., read-out: pKa, imine function) it was about 10.
For the compound `O=C(O)c1nn(Cc2ccc(Cl)cc2Cl)c2ccccc12` [lonidamine], in data set [5], the IC50 is 58000 nM.
In turn, `Cc1nc2cccc[n+]2c(C)c1O` [6 (chlorhydrate)] showed an IC50 in data set [3] of 7 nM.
As to `CCCn1cnc2c1N=CN1C2=N[C@](C)(C(=O)O)[C@@H](O)[C@@]1(C)O` (racemic) [Compound 9a], a half-maximal effect in data set [2] (EC50) was put at 2000 nM. In data set [3], the Effect result was “+ (In case of a significant increase, the compound was listed as an activator)” and the EC50 came out at 2000 nM.
`CC1(C(=O)O)N=C2c3ncn([C@H]4CC(O)[C@@H](CO)O4)c3N=CN2C(C)(O)C1O` (stereo in doubt) [Compound 1, 2′-deoxyadenosine Adducts]: the “effect on activation of mutated CFTR (CHO-G551D)” value (“effect … (CHO-G551D)” below) in data set [1] (setting [9]) is recorded as “no effect”; in data set [1] (setting [10]) it was “no effect”; in data set [1] (setting [11]) it was “inhibition”. The IC50 in data set [1] came to 43 nM; in data set [2], 0.093 nM; in data set [3], 0.071 nM. Besides, the “effect on G551D mutated receptors” value in data set [1] was “effectively antagonises the action of the forskolin and genistein activators”. Besides, the “effect on activation of wild-type CFTR (CHO-WT)” value (“effect on activation … (CHO-WT)” below) in data set [3] (setting [9]), in data set [3] (setting [10]) and in data set [3] (setting [11]) was “inhibition” in each case. Moreover, in data set [3], the “effect on wild-type receptors” value was “effectively antagonises the action of the forskolin and genistein activators”.
`CCCN1C=CC2=N[C@](C)(C(=O)O)[C@H](O)[C@@](C)(O)N2C1=O` [Compound 2b]: the IC50 in data set [3] came to 1.5 nM.
`O=C(O)c1ccc(/C=C2\SC(=S)N(c3cccc(C(F)(F)F)c3)C2=O)cc1` [CFTRinh-172]: the IC50 in data set [5] was 200 nM. Besides, the “reduction of diarrhoea caused by the cholera toxin” value in data set [6] is on record as “more than 90%”. The toxicity in mice entry in data set [7] is “absence of toxicity”.
As for `CCCn1cnc2c1N=CN1C2=NC(C)(C(=O)O)C(O)C1(C)O` (mixture of isomers) [Compound 9, 9-propyladenine Adducts], in data set [1] (setting [9]), the “effect … (CHO-G551D)” value is “no effect”. For the same compound, the “effect … (CHO-G551D)” value in data set [1] (setting [11]) was “activation”. The “effect on G551D mutated receptors” value in data set [1] was “unable to activate”. In addition, in data set [8], the “activation of ΔF508 mutated receptor” value is reported as “can activate”. The “effect on activation … (CHO-WT)” value in data set [3] (setting [9]) is “activation”. For the same compound, the “effect on activation … (CHO-WT)” value in data set [3] (setting [11]) was “activation”. In addition, in data set [3], the Effect entry was “+ (In case of a significant increase, the compound was listed as an activator)”; a half-maximal response (EC50) required 2000 nM; the “effect on wild-type receptors” value is “activator effect”.
Regarding `CCCN1C=CC2=N[C@](C)(C(=O)O)[C@@H](O)[C@@](C)(O)N2C1=O` [Compound 2a], the IC50 in data set [3] amounted to 2 nM.
In the case of `CCCn1cnc2c1N=CN1C2=N[C@](C)(C(=O)O)[C@H](O)[C@@]1(C)O` (racemic) [Compound 9b], in data set [3], the Effect result is “+ (In case of a significant increase, the compound was listed as an activator)” and the EC50 was 3000 nM.
In data set [3], `C[C@]1(C(=O)O)N=C2c3nc[nH]c3N=CN2[C@](C)(O)[C@H]1O` (single isomer, unassigned) [Compound 5a] had an IC50 of 10000 nM.
For the compound `CCC1(C(=O)O)N=C2C=CC=CN2C(O)(CC)C1O` (mixture of isomers) [Compound 11], in data set [3], the IC50 amounted to 18000 nM.
Still for that read-out and setting: the result for `C[C@]1(C(=O)O)N=C2c3nc[nH]c3N=CN2[C@](C)(O)[C@H]1O` (single isomer, unassigned) [Compound 5b] reads 3000 nM; that for `C[N+](C)(C)CC(=O)O` [Betaine, reference compound], 96000 nM.
With `C=CCn1cnc2c1N=CN1C2=NC(C)(C(=O)O)C(O)C1(C)O` (mixture of isomers) [Compound 10, 9-allyladenine Adducts], in data set [3], the Effect result is reported as “+ (In case of a significant increase, the compound was listed as an activator)” and the response was half-maximal at 7500 nM (EC50).
Turning to `CC1(C(=O)O)N=C2C(O)=CC=CN2C(C)(O)C1O` (mixture of isomers) [Compound 3, 2-amino-3-hydroxypyridine Adducts], the results for the IC50 in data set [1], in data set [2] and in data set [3] were 36000 nM, 11000 nM and 4000 nM, respectively.
Consider `CCCN1C=CC2=NC(C)(C(=O)O)C(O)C(C)(O)N2C1=O` (centres unmarked) [Compound 2, 1-propylcytosine Adducts], for which the IC50 in data set [1] worked out at 154 nM; in data set [2], 2 nM; in data set [3] it was 2 nM.
`Cc1nc2cccc[n+]2c(C)c1[O-]` [Compound 6, 2-aminopyridine Derivative]: the IC50 was found to be 90 nM in data set [1], 5 nM in data set [2] and 5 nM in data set [3]. Besides, the pKa in data set [4] (read-out: pKa) was determined as 4.
On to `CC1(C(=O)O)N=C2c3nc[nH]c3N=CN2C(C)(O)C1O` (centres unmarked) [Compound 5, Adenine Adducts], for which the IC50 amounted to 110000 nM in data set [1], 12000 nM in data set [2] and 6000 nM in data set [3].
